Source: US12338464B2, “Clonal strains of attenuated vaccinia viruses and methods of use thereof” (priority 2011, dated 2025)

Assays:
[1] = A549 xenograft: average body weight; conditions: 2.5 μM ST-246
[2] = tested on: A549 human lung carcinoma xenografts; experiment: A549 xenograft: tumor volume; type: in vivo, mouse; conditions: 2.5 μM ST-246 in addition to LIVP 5.1.1 or GLV-1h68
[3] = tested on: A549 human lung carcinoma cells; type: cell-based; conditions: 5 μM ST-246

## O=C(NN1C(=O)[C@@H]2[C@@H]3C=C[C@@H]([C@H]4C[C@@H]34)[C@@H]2C1=O)c1ccc(C(F)(F)F)cc1 [ST-246]
[1]
  effect of ST-246 on toxicity of virus: reduced toxicity
[2]
  effect of ST-246 on tumor reduction by virus: decreased the ability of each virus to reduce tumor size
[3]
  effect of ST-246 on eradication of A549 cells by LIVP 5.1.1 and GLV-1h68: reduced the eradication of A549 cells
